# No end group written: not given here.
# What was measured:
# [1] = system: Tilapia D2 dopamine receptor; settings: COS7 cells, SRE-Luc and Gqi5
# Experimental: (§1) EC50 values were calculated from dose response curves by means of computerized non-linear curve fitting on baseline-corrected (control) values using Prism version 6 software (GraphPad).
# (1 picture or pasted object on this page, not shown here)
# spexin expression = settings: spotted scat, in vitro; cited from earlier work
# Source text: (§2) Spexin has been implicated in regulating the hypothalamic-pituitary-gonad (HPG) axis in some fish species. […] The first report on fish spexin in zebrafish and goldfish identified high and dynamic expression in the brain throughout the reproductive stages ([10]). […] Ovariectomized goldfish had increased hypothalamic spexin e ...
# tilapia Galr2a = tilapia Galr2a (Oreochromis niloticus, UniProt A0A650AWG9); format: cell-based, Nile tilapia (Oreochromis niloticus); settings: Gqi pathway (chimeric Gqi5 with SRE-luc, Gαi readout), COS7 cells, 6 h stimulation after 16 h serum starvation, mean ± SEM, minimum three independent transfections, triplicate wells
# Experimental: as §1
# GALR2 [2] = settings: cited from earlier work
# Source text: (§3) The galanergic neurotransmission system is one of the newest described signaling systems. […] Three different types of galanin receptors have been described so far in mammals: galanin receptor 1, 2, and 3 (GALR1, GALR2, and GALR3) ([14]). All of them are members of the G protein-coupled receptor (GPCR) family and act through stimulation of various seco ...
# GALR3 = settings: cited from earlier work
# Source text: as §3
# Galr2a = settings: cited from earlier work
# Source text: as §3
# Galr2b = settings: cited from earlier work
# Source text: as §3
# LH release = settings: goldfish; cited from earlier work
# Source text: as §2
# [3] = system: goldfish pituitary cultures; settings: cited from earlier work
# Source text: as §2
# [4] = system: GnIH, GnRH-III, GpHα and FSHβ expression; settings: sole; cited from earlier work
# Source text: Spexin mRNA expression levels may also be correlated with reproductive development. Increases in LH and FSH mRNA expression is seasonal and corresponds to gonadal development ([50], [51]).
# [5] = system: agouti-related peptide (AgRP) expression; settings: zebrafish; cited from earlier work
# Source text: (§4) Spexin plays a role in feeding behavior and metabolism in fish and mammals [reviewed in ([3])]. In the orange-spotted grouper ([11]), half-smooth tongue sole ([46]), and spotted scat ([46]), starvation increased Spx1 expression. […] This effect was also observe ...
# [6] = system: appetite stimulants and anorexigenic factors in the brain; settings: goldfish brain, central administration, cited from earlier work
# Source text: as §4
# [7] = system: feeding behavior induced by NPY and orexin; settings: intracerebroventricular injection; no reference printed at the sentence (preceding sentence ref 2); cited from earlier work
# Source text: as §4
# goldfish = settings: injection; cited from earlier work
# Source text: as §4
# GalR2 [8] = settings: cited from earlier work
# Source text: Spexin mediates its effects by activating an inhibitory G-protein (Gαi) via galanin receptor (GalR) 2/3. Like the kisspeptin, galanin, and spexin peptides, the kisspeptin and galanin receptors are related. Ancestral forms of KissR, GalR1, and GalR2/3 were identified on different VACs with 1R and 2R expanding each clade, giving rise to four KissR (KissR1, 3, 2, 4), two GalR1 (1a, 1b), two GalR2 (2a, 2b) and GalR3 paralogs ([15]). Our phylogenetic analysis supports that of Kim et al. ([15]), showing that GalRs are divided into two major clades, namely GalR1 and GalR2/3, with KissRs forming a dis ...
# adrenocortical cell = settings: mammals; cited from earlier work
# Source text: (§5) Spexin (SPX1; also termed neuropeptide Q) was identified first by computational methods in humans ([1]), and then also by chemical methods in goldfish ([2]). These computational methods have been attempted mostly on the basis of the characteristics of the prohormones from which active neuropeptides are processed. The mature peptide sequence contains 14 amino acids that are flanked by monobasic and dibasic proteolytic cleavage sites. […] A paralog o ...
# stomach contraction = settings: mammals; cited from earlier work
# Source text: as §5
# [9] = system: hypothalamic spexin expression; settings: ovariectomized goldfish, estrogen replacement; cited from earlier work
# Source text: as §2
# [10] = system: Spx1 levels and expression; settings: cited from earlier work
# Source text: as §4
# Chain of tilapia Galr2a (A0A650AWG9 entry or part of it): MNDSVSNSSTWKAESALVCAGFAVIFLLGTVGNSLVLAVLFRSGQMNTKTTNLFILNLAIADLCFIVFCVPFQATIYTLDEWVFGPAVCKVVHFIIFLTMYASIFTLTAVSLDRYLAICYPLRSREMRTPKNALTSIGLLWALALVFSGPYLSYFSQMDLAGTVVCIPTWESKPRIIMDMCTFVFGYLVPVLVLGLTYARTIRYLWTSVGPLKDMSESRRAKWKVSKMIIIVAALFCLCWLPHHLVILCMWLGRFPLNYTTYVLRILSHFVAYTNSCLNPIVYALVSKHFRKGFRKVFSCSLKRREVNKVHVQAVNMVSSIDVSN
molecule,measurement,setting,value
NCCc1ccc(O)c(O)c1 [dopamine],luciferase activity via tilapia D2 receptor with Gqi5 (in words),[1],dose-dependent increase in luciferase activity
C[C@]12CC[C@@H]3c4ccc(O)cc4CC[C@H]3[C@@H]1CC[C@@H]2O [estradiol],spexin expression,spexin expression,decreased spexin expression in a dose-dependent manner in vitro
GWTLNSAGYLLGPHAVGNHRSFSNKNGLTS-NH2 [Galanin],EC50,tilapia Galr2a,0.0001 ± 5.6 log nM
"Spexin: spexin of cited literature; 14 amino acid peptide hormone, species varies",functional agonism at human GALR2,GALR2 [2],functional agonist
same,functional agonism at human GALR3,GALR3,functional agonist
same,functional agonism at zebrafish Galr2a,Galr2a,functional agonist
same,functional agonism at zebrafish Galr2b,Galr2b,functional agonist
same,LH release in vivo,LH release,inhibited LH release
same,LH release in pituitary cultures,[3],inhibited LH release
same,GnIH and GnRH-III expression,[4],increasing gonadotropin inhibitory hormone (GnIH) and GnRH-III expression
same,GpHα and FSHβ expression,[4],decreasing GpHα and FSHβ expression
same,AgRP expression,[5],suppressed agouti-related peptide (AgRP) expression
same,expression of anorexigenic factors,"[6]; POMC, CART, CCK, MCH, CRH",increased expression of anorexigenic factors
same,expression of appetite stimulants,[6],"decrease in expression of appetite stimulants (NPY, AgRP, and apelin)"
same,NPY- and orexin-induced feeding,[7],inhibited feeding behavior induced by NPY and orexin
same,feeding behavior,goldfish,decreased surface feeding and increased food rejection
same,dissociation / receptor internalization at GalR2,GalR2 [8],quickly dissociated after G-protein signaling
same,adrenocortical cell proliferation,adrenocortical cell,inhibiting adrenocortical cell proliferation
same,stomach contraction,stomach contraction,inducing stomach contraction
estrogen,hypothalamic spexin expression,[9],returned expression to basal levels
insulin: insulin (cited study on spexin regulation),circulating Spx1 and brain Spx1 expression,[10],"increase circulating levels of Spx1 and its expression in the telencephalon, hypothalamus, and optic tectum"
